In US20220347196A1, “COMPOSITIONS AND METHODS FOR IMPROVING GASTROINTESTINAL FUNCTION IN SUBJECTS WITH RENAL DISEASE” (priority 2021, published 2022):

Columns and labels:
[1] = system: subjects with ESRD on hemodialysis with constipation; experiment: Bowel movement consistency and regularity after 12 week 2′-FL treatment; assay type: in vivo, human; conditions: five subjects, 3.3 grams/day for 12 weeks
Experimental: Five subjects with ESRD on hemodialysis with constipation were treated with 2′-FL (3.3 grams/day) for 12 weeks.

[2] = system: Patients With ESRD On Hemodialysis With Constipation; experiment: Nutrition, hemoglobin and inflammatory biomarkers measured each month during 12 week HMO treatment; assay type: in vivo, human
Experimental: Five subjects with ESRD on hemodialysis with constipation were treated with 2′-FL (3.3 grams/day) for 12 weeks. Meanwhile, nutrition, hemoglobin, and inflammatory biomarkers were measured in each of the these patients at each month during the treatment.

[3] = Patient 1, month of treatment 0 (baseline), 3.3 grams/day
[4] = Patient 1, month of treatment 1, 3.3 grams/day
[5] = Patient 1, month of treatment 2, 3.3 grams/day
[6] = Patient 1, month of treatment 3, 3.3 grams/day
[7] = Patient 2, month of treatment 0 (baseline), 3.3 grams/day
[8] = Patient 2, month of treatment 1, 3.3 grams/day
[9] = Patient 2, month of treatment 2, 3.3 grams/day
[10] = Patient 2, month of treatment 3, 3.3 grams/day
[11] = Patient 3, month of treatment 0 (baseline), 3.3 grams/day
[12] = Patient 3, month of treatment 1, 3.3 grams/day
[13] = Patient 3, month of treatment 2, 3.3 grams/day
[14] = Patient 3, month of treatment 3, 3.3 grams/day
[15] = Patient 4, month of tx 0 (baseline), 3.3 grams/day
[16] = Patient 4, month of tx 1, 3.3 grams/day
[17] = Patient 4, month of tx 2, 3.3 grams/day
[18] = Patient 4, month of tx 3, 3.3 grams/day
[19] = Patient 5, month of treatment 0 (baseline), 3.3 grams/day
[20] = Patient 5, month of treatment 1, 3.3 grams/day
[21] = Patient 5, month of treatment 2, 3.3 grams/day
[22] = Patient 5, month of treatment 3, 3.3 grams/day
[23] = five subjects, 3.3 grams/day for 12 weeks

**Q.** With 2′-fucosyllactose [2′-FL] as the substance, how does the bowel movement consistency [1] read?
**A.** from hard stool to soft

**Q.** And the “bowel movement regularity (on average)” value [1]?
**A.** from one bowel movement every other day to one bowel movement every day

**Q.** And the Albumin [2, 3]?
**A.** 3.6 g/dL

**Q.** What about the Ferritin [2, 3] of the same substance?
**A.** 548 ng/mL

**Q.** And the Hg [2, 3]?
**A.** 10.6 g/dL

**Q.** And the Albumin [2, 4]?
**A.** 3.7 g/dL

**Q.** And the CRP [2, 4]?
**A.** 0.7 mg/L

**Q.** What about the Ferritin [2, 4] of the same substance?
**A.** 546 ng/mL

**Q.** And the Hg [2, 4]?
**A.** 10.5 g/dL

**Q.** And the Albumin [2, 5]?
**A.** 3.8 g/dL

**Q.** What about the CRP [2, 5] of the same substance?
**A.** 0.5 mg/L

**Q.** What about the Ferritin [2, 5] of the same substance?
**A.** 503 ng/mL

**Q.** And the Hg [2, 5]?
**A.** 11.2 g/dL

**Q.** What about the Albumin [2, 6] of the same substance?
**A.** 3.5 g/dL

**Q.** And the CRP [2, 6]?
**A.** 0.3 mg/L

**Q.** And the Ferritin [2, 6]?
**A.** 364 ng/mL

**Q.** What about the Hg [2, 6] of the same substance?
**A.** 10.7 g/dL

**Q.** And the Albumin [2, 7]?
**A.** 4.2 g/dL

**Q.** And the Ferritin [2, 7]?
**A.** 1250 ng/mL

**Q.** What about the Hg [2, 7] of the same substance?
**A.** 11.2 g/dL

**Q.** And the Albumin [2, 8]?
**A.** 4.3 g/dL

**Q.** What about the CRP [2, 8] of the same substance?
**A.** 6.2 mg/L

**Q.** And the Ferritin [2, 8]?
**A.** 1188 ng/mL

**Q.** What about the Hg [2, 8] of the same substance?
**A.** 11.3 g/dL

**Q.** And the Albumin [2, 9]?
**A.** 4.2 g/dL

**Q.** What about the CRP [2, 9] of the same substance?
**A.** 4.3 mg/L

**Q.** And the Ferritin [2, 9]?
**A.** 1000 ng/mL

**Q.** What about the Hg [2, 9] of the same substance?
**A.** 10.6 g/dL

**Q.** And the Albumin [2, 10]?
**A.** 4.2 g/dL

**Q.** What about the CRP [2, 10] of the same substance?
**A.** 2.3 mg/L

**Q.** And the Ferritin [2, 10]?
**A.** 899 ng/mL

**Q.** What about the Hg [2, 10] of the same substance?
**A.** 10.2 g/dL

**Q.** And the Albumin [2, 11]?
**A.** 3.9 g/dL

**Q.** What about the Ferritin [2, 11] of the same substance?
**A.** 1243 ng/mL

**Q.** What about the Hg [2, 11] of the same substance?
**A.** 10.5 g/dL

**Q.** What about the Albumin [2, 12] of the same substance?
**A.** 4 g/dL

**Q.** What about the CRP [2, 12] of the same substance?
**A.** 19 mg/L

**Q.** What about the Ferritin [2, 12] of the same substance?
**A.** 1135 ng/mL

**Q.** What about the Hg [2, 12] of the same substance?
**A.** 11.3 g/dL

**Q.** What about the Albumin [2, 13] of the same substance?
**A.** 3.9 g/dL

**Q.** What about the CRP [2, 13] of the same substance?
**A.** 1.9 mg/L

**Q.** What about the Ferritin [2, 13] of the same substance?
**A.** 827 ng/mL

**Q.** What about the Hg [2, 13] of the same substance?
**A.** 10.9 g/dL

**Q.** And the Albumin [2, 14]?
**A.** 4 g/dL

**Q.** And the CRP [2, 14]?
**A.** 1.6 mg/L

**Q.** What about the Ferritin [2, 14] of the same substance?
**A.** 907 ng/mL

**Q.** What about the Hg [2, 14] of the same substance?
**A.** 11.2 g/dL

**Q.** And the Albumin [2, 15]?
**A.** 3.9 g/dL

**Q.** What about the Ferritin [2, 15] of the same substance?
**A.** 1487 ng/mL

**Q.** And the Hg [2, 15]?
**A.** 10.8 g/dL

**Q.** What about the Albumin [2, 16] of the same substance?
**A.** 3.9 g/dL

**Q.** And the CRP [2, 16]?
**A.** 2 mg/L

**Q.** And the Ferritin [2, 16]?
**A.** 1208 ng/mL

**Q.** And the Hg [2, 16]?
**A.** 10.5 g/dL

**Q.** What about the Albumin [2, 17] of the same substance?
**A.** 3.9 g/dL

**Q.** And the CRP [2, 17]?
**A.** 1.5 mg/L

**Q.** And the Ferritin [2, 17]?
**A.** 749 ng/mL

**Q.** What about the Hg [2, 17] of the same substance?
**A.** 11.3 g/dL

**Q.** And the Albumin [2, 18]?
**A.** 3.8 g/dL

**Q.** What about the CRP [2, 18] of the same substance?
**A.** 1.5 mg/L

**Q.** What about the Ferritin [2, 18] of the same substance?
**A.** 985 ng/mL

**Q.** What about the Hg [2, 18] of the same substance?
**A.** 11.4 g/dL

**Q.** And the Albumin [2, 19]?
**A.** 4.1 g/dL

**Q.** And the Ferritin [2, 19]?
**A.** 580 ng/mL

**Q.** What about the Hg [2, 19] of the same substance?
**A.** 12.2 g/dL

**Q.** And the Albumin [2, 20]?
**A.** 4.1 g/dL

**Q.** And the CRP [2, 20]?
**A.** 27.5 mg/L

**Q.** And the Ferritin [2, 20]?
**A.** 431 ng/mL

**Q.** What about the Hg [2, 20] of the same substance?
**A.** 12.6 g/dL

**Q.** And the Albumin [2, 21]?
**A.** 3.9 g/dL

**Q.** What about the CRP [2, 21] of the same substance?
**A.** 28 mg/L

**Q.** What about the Ferritin [2, 21] of the same substance?
**A.** 313 ng/mL

**Q.** And the Hg [2, 21]?
**A.** 12.2 g/dL

**Q.** What about the Albumin [2, 22] of the same substance?
**A.** 3.8 g/dL

**Q.** What about the CRP [2, 22] of the same substance?
**A.** 12.4 mg/L

**Q.** And the Ferritin [2, 22]?
**A.** 332 ng/mL

**Q.** What about the Hg [2, 22] of the same substance?
**A.** 12 g/dL

**Q.** What about the “anemia (hemoglobin), average” value [2, 23] of the same substance?
**A.** improvement or stabilization

**Q.** And the “nutrition (albumin), average” value [2, 23]?
**A.** improvement or stabilization

**Q.** What about the “serum inflammatory marker CRP (C-reactive protein), average” value [2, 23] of the same substance?
**A.** significant and persistent reduction

**Q.** What about the “serum inflammatory marker ferritin, average” value [2, 23] of the same substance?
**A.** significant and persistent reduction
